Source: patent US20160346225A1, “METHOD OF PREPARING INGESTIBLE MULTI-SHEET UNIT HAVING PREDETERMINED FUNCTIONS AND COMBINATIONS” (Purdue Research Foundation, priority 2011, published 2016)

Legend:
[1] = dissolution of griseofulvin from particle-containing polymer films; type: physicochemical; details: for dissolution profile as a function of film thickness: FIG. 5D
Text: A 10 micron film can be configured with the film is a single layer of particles that are held together by the polymer sheet, where the particles may or may not be larger in diameter than the film thickness. In one example, a films can be on the order of 100 microns. However, the film can be as thin as roughly the size of the largest particles.

[2] = in the dissolution medium; cited from earlier work

drug release rate from film matrix ([1]; film matrix (HPMC or alginate) vs same type of particles (API) free from polymer, same area of exposure, FIG. 6): accelerated drug release
drug release rate as a function of drug load in the film ([1]; range of drug loading percentages, FIG. 7): increases with drug load
SMILES: COC1=CC(=O)C[C@@H](C)[C@]12Oc1c(Cl)c(OC)cc(OC)c1C2=O [griseofulvin]
dissolution of drug from immobilized particles at high drug load ([1]; about 72% (w/w) drug load in the film, FIG. 7): enhanced dissolution of drug from the immobilized particles is still observed
dissolution profile as a function of film thickness ([1]; film thickness increased from 10 microns to 20 microns): initially increase the dissolution profile
dissolution profile as a function of film thickness ([1]; film thickness increased up to 70 microns): significantly decreases the dissolution profile
solubility [2]: poorly-soluble
